Read-outs that look alike come from different tables or passages of the source.
Assays:
rat S100B [1] = target: T1, rat S100B (Rattus norvegicus, UniProt P04631); test: Fluorescence polarization competition assay; type: binding
T1 sequence (P04631 1-92): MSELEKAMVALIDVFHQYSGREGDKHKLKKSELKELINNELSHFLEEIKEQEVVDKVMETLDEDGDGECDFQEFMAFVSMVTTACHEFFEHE

Ca2+-bound S100B = target: T2, Ca2+-bound S100B (Rattus norvegicus, UniProt P04631); test: NMR 1H-15N HSQC chemical shift perturbation secondary screen; type: binding; conditions: for NMR (confirmed to bind S100B via NMR HSQC experiments): 10-fold excess compound versus S100B (100 μM; 10 mM Ca2+)
T2 sequence (P04631 1-92): T1 sequence (P04631 1-92)

rat S100B [2] = target: T1, rat S100B; test: Fluorescence polarization binding assay of labeled peptides; conditions: Ca2+-S100B
TAMRA-TRTK = test: fluorescence polarisation
S100B = target: T3, S100B (Rattus norvegicus, UniProt P04631); test: Binding monitored by change in the compound's intrinsic fluorescence
T3 sequence (P04631 1-92): T1 sequence (P04631 1-92)

| Compound | NMR (confirmed to bind S100B via NMR HSQC experiments) (Ca2+-bound S100B) | IC50 (rat S100B [1]) [µM] | Kd (rat S100B [1]) [µM] | other results |
| --- | --- | --- | --- | --- |
| O=C(O)c1ccccc1S [thiosalicylic acid] |  |  |  | Inhibition of TAMRA-TRTK binding in the FPCA (rat S100B [1]; even at 2.5 mM compound): did not significantly inhibit; Chemical shift perturbations of the HSQC NMR spectra (Ca2+-bound S100B; 1 mM compound added to 100 μM S100B, fast-exchange regime): significant chemical shift perturbations |
| FITC-p53_367–393: FITC-labeled peptide of human p53 residues 367–393 |  |  |  | Affinity (KD) of FITC-labeled peptide compared with unlabeled version (rat S100B [2]): significantly higher affinity than the unlabeled version |
| C68/84S mutant rat S100B (natural protein) |  |  |  | Kd (TAMRA-TRTK): 2.42 µM |
| C[CH2][Hg][S]c1ccccc1C(=O)[O-].[Na+] [SC0332, thimerosal] | Yes |  |  | Kd (rat S100B [1]; calculated from FPCA IC50 with the equation of Nikolovska-Coleska et al): 55.2 ± 5.1 µM |
| C[n+]1cc2c3c(ccc2c2ccc4cc5c(cc4c21)OCO5)OCO3 [SC0844, sanguinarine] | Yes | 35.9 ± 16.4 | 10.7 ± 4.9 | Kd (S100B): 5.8 µM |
| CN(C)CCCN1c2ccccc2Sc2ccc(Cl)cc21 [SC0067, chlorpromazine] |  | 2220 ± 1360 | 697 ± 428 |  |
